{"source": "patent EP2135864A1", "about": "“5-(4-methanesulfonyl-phenyl)-thiazole derivatives for the treatment of acute and chronic inflammatory diseases” (FAES FARMA, S.A., priority 2008, dated 2009)", "assay_type_in_all_cases": "cell-based, human", "key": {"IL-10": {"test_system": "IL-10", "assay": "IL-10 production by PBMC from healthy volunteers, CBA", "conditions": "24 hours, mean ± standard error, n=13", "procedure": "CBA protocol was followed according to the manufacturer's instructions. The election of microparticles was performed following the summary of Figure 1.\nThe acquisition on samples was performed with the BD FACS Array Bioanalyser System (FACSArray, Becton Dickinson, San José, CA, USA) and the analysis of the results was completed with the software FCAP Array (Becton Dickinson) in a PC computer.\nBriefly, the experimental protocol consisted of a plate pre-washing out with Wash Buffer. After decantation, the mixture of capture microparticles was re-suspended in the vortex. Standards and samples were added in the adequate dilution. After permanent stirring incubation during 1 h, the PE detection reagent was added and incubated again during 2h at room temperature. After a washing-out, the acquisition was performed in the flow cytometer. Table 3. -Kit CBA Human Soluble Protein Multiplex Flex Set System.\nThe effects of compound 12 on IL-10 production by the PBMC from healthy volunteers and patients with rheumatoid arthritis were investigated in the presence and absence of LPS stimulation and with the combination of monoclonal antibodies anti-CD3 and anti-CD28. PBMC (5 x 10^4 cells per well) from 13 healthy volunteers were cultured in duplicate 200 µl of complete medium supplemented with the highest solvent concentration (10^-6 M), and 10^-6 M, 10^-7 M and 10^-8 M of compound 12, in the presence and absence of either LPS (10 µg/ml) or anti-CD3 (12.5 ng/ml), + anti-CD28 (1/3x10^5), during 24 hours.\nOn the other hand, PBMC (5 x 10^4 cells per well) from 8 patients with rheumatoid arthritis were cultured in duplicate in 200 µl of complete medium supplemented with the highest solvent concentration (10^-6 M), and 10^-6 M, 10^-7 M and 10^-8 M of compound 12 in the presence and absence of either LPS (10 µg/ml) or anti-CD3 (12.5 ng/ml), + anti-CD28 (1/3x10^5), during 24 hours. Culture supernatants were frozen at -20°C and IL-10 concentration was assayed by BD FACS Array Bioanalyser by using CBA Flex Set, specific to determine IL-10 concentration, following the manufacturer instructions."}, "[1]": {"test_system": "PBMC from healthy volunteers", "assay": "Proliferative response of PBMC, 3[H]-Thymidine incorporation", "conditions": "n=8; 4 days culture; absence or presence of PHA 10 µg/ml, PHA 2 µg/ml plus IL-2 (25 IU/ml), or anti-CD3 (12.5 ng/ml) + anti-CD28 (1:320.000)", "procedure": "Faced against a mitogen stimulation, lymphocytes suffer a blastogenesis and cellular differentiation process. The method used to quantify the cellular proliferation was the assay of the incorporation of ^3[H]-Thymidine to the DNA de novo synthesized, and the emission of betha-radiation from the cellular cultures dried extracts (to which the tritiated base was added) was detected before its ending and harvesting. In the different experiments performed to study the proliferation, the purified cellular preparations were incubated in 96 microwells plain bottom plates at concentrations of 5 x 10^4 cells/well (200 µl final volume), in the presence of different concentrations of various mitogens with triplicate repetitions and along 4 days of culture.\nThe response to a specific stimuli depended on the density and cell type studied, as well as of the culture time and of the mitogenic agent concentration. […]\nPBMC was cultured during 4 days (50.000 cells per well) at 37°C and 5 % CO2 atmosphere (Cell incubator HERA Cell 150, Thermoscientific, Thermoelectron, 63505 Lagenselbold, GE) in complete culture medium. […] The DNA-incorporated radioactive was quantified by using a betha particles counter Wallac Oy."}, "CD62L": {"test_system": "CD62L", "assay": "Shedding of CD62L in monocytes of PBMC, flow cytometry", "conditions": "monocytes of PBMC from healthy volunteers, mean ± standard error, n=10, vehicle 65.34±8.06"}}, "data": [{"smiles": "Cc1nc(OC2CCCC2)c(-c2ccc(S(C)(=O)=O)cc2)s1", "note": "[compound 12, 4-cyclopentyloxy-5-(4-methylsulfonyl-phenyl)-2-methylthiazole]", "values": [{"measurement": "IL-10 production by PMBC from healthy volunteers", "setting": "IL-10; LPS (10µg/ml), 10^-6 M, vehicle 2342.20±384.02, p 0.507", "result": "2420.68±455.50 (0.507) pg/mL"}, {"measurement": "IL-10 production by PMBC from healthy volunteers", "setting": "IL-10; LPS (10µg/ml), 10^-7 M, vehicle 2342.20±384.02, p 0.507", "result": "2392.99±427.86 (0.507) pg/mL"}, {"measurement": "IL-10 production by PMBC from healthy volunteers", "setting": "IL-10; LPS (10µg/ml), 10^-8 M, vehicle 2342.20±384.02, p 0.701", "result": "2389.63±366.01 (0.701) pg/mL"}, {"measurement": "IL-10 production by PMBC from healthy volunteers", "setting": "IL-10; anti-CD3 (12.5 ng/ml) + anti-CD28 (1/3x10^5), 10^-6 M, vehicle 1042.64±162.36, p 0.507", "result": "1239.47±251.24 (0.507) pg/mL"}, {"measurement": "IL-10 production by PMBC from healthy volunteers", "setting": "IL-10; anti-CD3 (12.5 ng/ml) + anti-CD28 (1/3x10^5), 10^-7 M, vehicle 1042.64±162.36, p 0.382", "result": "1132.69±213.32 (0.382) pg/mL"}, {"measurement": "IL-10 production by PMBC from healthy volunteers", "setting": "IL-10; anti-CD3 (12.5 ng/ml) + anti-CD28 (1/3x10^5), 10^-8 M, vehicle 1042.64±162.36, p 0.507", "result": "1122.51±211.03 (0.507) pg/mL"}, {"measurement": "IL-10 production by PMBC from healthy volunteers", "setting": "IL-10; medium, 10^-6 M, vehicle 490.46±87.16, p 0.753", "result": "559.06±112.20 (0.753) pg/mL"}, {"measurement": "IL-10 production by PMBC from healthy volunteers", "setting": "IL-10; medium, 10^-7 M, vehicle 490.46±87.16, p 0.701", "result": "609.10±108.74 (0.701) pg/mL"}, {"measurement": "IL-10 production by PMBC from healthy volunteers", "setting": "IL-10; medium, 10^-8 M, vehicle 490.46±87.16, p 0.861", "result": "578.66±106.20 (0.861) pg/mL"}, {"measurement": "proliferative response of the PBMC from healthy volunteers", "setting": "[1]", "result": "did not significantly modify"}, {"measurement": "Mean fluorescence intensity of surface CD62L expression in monocytes (MFI)", "setting": "CD62L; 10^-6 M, p 0.721", "result": "63.90±8.52 (0.721)"}, {"measurement": "Mean fluorescence intensity of surface CD62L expression in monocytes (MFI)", "setting": "CD62L; 10^-7 M, p 0.878", "result": "72.30±10.21 (0.878)"}]}]}
